Literature values, collected in US20220401389A1, “TRANSMUCOSAL THERAPEUTIC SYSTEM CONTAINING AGOMELATINE” (LTS LOHMANN Therapie-Systeme AG, priority 2019, published 2022).

[1] = patients with moderate hepatic impairment compared to healthy subjects

COc1ccc2cccc(CCNC(C)=O)c2c1 [agomelatine, N-(2-(7-Methoxy-1-naphthyl)ethyl)acetamide]
oral absorption (oral): > 80% | overall bioavailability (oral): less than 5% | increase of AUC [1]: up to 140 fold | increase of cmax [1]: up to 140 fold
